The EC50 is the concentration that produces a half-maximal response.

SMILES strings stand for the structures. A value given as a limit tells only on which side of the number the result lay.

Data on 6 compounds can be found in patent US7396830B2, “Piperazine amidines as antiviral agents” (priority 2005, dated 2008).

The test system of the test is HIV-1. Kind of test: Single-round infectious HIV-1 luciferase reporter virus infection of HeLa CD4 cells. The following applies: Human immunodeficiency virus 1, HeLa, 72 h, read-out: EC50 Group from Table 1. It counts as cell-based. The procedure: • Virus production—Human embryonic Kidney cell line, 293T, was propagated in Dulbecco's Modified Eagle Medium (Invitrogen, Carlsbad, Calif.) containing 10% fetal Bovine serum (FBS, Sigma, St. Louis, Mo.). • Virus infection—Human epithelial cell line, HeLa, expressing the HIV-1 receptor CD4 was propagated in Dulbecco's Modified Eagle Medium (Invitrogen, Carlsbad, Calif.) containing 10% fetal Bovine serum (FBS, Sigma, St. Louis , Mo.) and supplemented with 0.2 mg/mL Geneticin (Invitrogen, Carlsbad, Calif.). Virus-Single-round infectious reporter virus was produced by co-transfecting human embryonic Kidney 293 cells with an HIV-1 envelope DNA expression vector and a proviral cDNA containing an envelope deletion mutation and the luciferase reporter gene inserted in place of HIV-1 nef sequences (Chen et al, Ref. 41). Transfections were performed using lipofectAMINE PLUS reagent as described by the manufacturer (Invitrogen, Carlsbad, Calif.). Experiment • 1. HeLa CD4 cells were plated in 96 well plates at a cell density of 1×10^4 cells per well in 100 μl Dulbecco's Modified Eagle Medium containing 10% fetal Bovine serum and incubated overnight. • 2. Compound was added in a 2 μl dimethylsulfoxide solution, so that the final assay concentration would be ≦10 μM. • 3. 100 μl of single-round infectious reporter virus in Dulbecco's Modified Eagle Medium was then added to the plated cells and compound at an approximate multiplicity of infection (MOI) of 0.01, resulting in a final volume of 200 μl per well. • 4. Virally-infected cells were incubated at 37 degrees Celsius, in a CO2 incubator, and harvested 72 h after infection. • 5. Viral infection was monitored by measuring luciferase expression from viral DNA in the infected cells using a luciferase reporter gene assay kit, as described by the manufacturer (Roche Molecular Biochemicals, Indianapolis, Ind.). Infected cell supernatants were removed and 50 μl of lysis buffer was added per well. After 15 minutes, 50 μl of freshly-reconstituted luciferase assay reagent was added per well. Luciferase activity was then quantified by measuring luminescence using a Wallac microbeta scintillation counter. • 6. The percent inhibition for each compound was calculated by quantifying the level of luciferase expression in cells infected in the presence of each compound as a percentage of that observed for cells infected in the absence of compound and subtracting such a determined value from 100. • 7. An EC50 provides a method for comparing the antiviral potency of the compounds of this disclosure. The effective concentration for fifty percent inhibition (EC50) was calculated with the Microsoft Excel Xlfit curve fitting software. For each compound, curves were generated from percent inhibition calculated at 10 different concentrations by using a four paramenter logistic model (model 205). Table 1 is the key for the data in Table 2. Results
On the technique in general: Reporter assays use an easily measured gene product as a stand-in for the process of interest.
As for `N=C(c1ccccc1)N1CCN(C(=O)C(=O)c2c[nH]c3c(-c4nccs4)ccc(F)c23)CC1` [AM-77], the EC50 was below 500 nM.

`C[C@H]1CN(/C(=N/C#N)c2ccccc2)CCN1C(=O)C(=O)c1c[nH]c2c(-c3nccs3)ccc(F)c12` [AM-78]: the half-maximal effective concentration (EC50) is below 500 nM.

Turning to `C[C@H]1CN(/C(=N/C#N)c2ccccc2)CCN1C(=O)C(=O)c1c[nH]c2c(-c3ccccn3)ccc(F)c12` [AM-79], the EC50 is below 500 nM.

As to `C[C@H]1CN(/C(=N/C#N)c2ccccc2)CCN1C(=O)C(=O)c1c[nH]c2c(-c3cc4ccccc4s3)ccc(F)c12` [AM-80], the 50% effective concentration (EC50) is below 500 nM.

Turning to `N#C/N=C(\c1ccccn1)N1CCN(C(=O)C(=O)c2c[nH]c3c(-n4ccnn4)ncc(F)c23)CC1` [AM-81], the EC50 is below 500 nM.

Take `COc1cnc(-n2cnc(C)n2)c2[nH]cc(C(=O)C(=O)N3CCN(/C(=N/C#N)c4ccccn4)CC3)c12` [AM-82]: the 50% effective concentration (EC50) is below 500 nM.
